In publication PMC11969544, “Structure-Based Mechanism and Specificity of Human Galactosyltransferase β3GalT5” (Journal of the American Chemical Society, 2025):
One block for each molecule: values may come before it.

Columns and labels:
[1] = target: T1, human β3GalT5 (β1,3-galactosyltransferase 5) (Homo sapiens, UniProt Q9Y2C3); assay: X-ray crystallography; assay type: binding; conditions: Mn2+; donor site; with Gb5 glycan bound
T1 construct: gene B3GALT5; recombinant luminal catalytic domain Phe31-Pro308 (crystallised construct), transmembrane domain removed; N-glycosylated
T1 sequence (Q9Y2C3 31-308): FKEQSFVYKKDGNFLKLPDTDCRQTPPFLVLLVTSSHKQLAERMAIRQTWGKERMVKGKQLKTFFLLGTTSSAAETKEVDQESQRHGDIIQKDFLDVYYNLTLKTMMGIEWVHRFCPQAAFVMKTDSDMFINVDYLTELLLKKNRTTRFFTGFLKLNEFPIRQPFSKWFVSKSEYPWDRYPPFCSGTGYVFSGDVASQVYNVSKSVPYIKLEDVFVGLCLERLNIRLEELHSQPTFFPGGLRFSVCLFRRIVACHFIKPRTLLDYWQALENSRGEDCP

[2] = target: T1, human β3GalT5 (β1,3-galactosyltransferase 5); assay: galactosyltransfer kinetics (details in supplement); assay type: biochemical; conditions: acceptor; donor UDP-Gal; crystal structure of the complex also solved
[3] = target: T1, human β3GalT5 (β1,3-galactosyltransferase 5); assay: X-ray crystallography (cocrystallisation); assay type: binding; conditions: Mn2+; donor site; inert donor analogue
[4] = substrate: CC(=O)N[C@H]1[C@H](O[C@H]2[C@@H](O)[C@@H](CO)O[C@H](O[C@H](C)[C@H](N)C(=O)O)[C@@H]2NC(C)=O)O[C@H](CO)[C@@H](O)[C@@H]1O; assay: galactosyltransfer kinetics (details in supplement); assay type: biochemical, Homo sapiens; conditions: acceptor; donor UDP-Gal; crystal structure of the complex also solved
[5] = substrate: COC1O[C@H](CO)[C@H](O)[C@H](O[C@@H]2O[C@H](CO)[C@@H](O)[C@H](O)[C@H]2NC(C)=O)[C@H]1O; assay: as above; assay type: biochemical, Homo sapiens; conditions: acceptor; donor UDP-Gal; crystal structure of the complex also solved

Molecule: O=c1ccn([C@@H]2O[C@H](COP(=O)(O)OP(=O)(O)O)[C@@H](O)[C@H]2O)c(=O)[nH]1 [UDP]
X-ray crystallography [1]: β3GalT5 cocrystallized with UDP and soaked with the product Gb5 (SSEA3) glycan

Km [2]: 2000 µM
Molecule: CC(=O)N[C@H]1[C@H](O[C@H]2[C@@H](O)[C@@H](CO)O[C@H](O[C@@H]3[C@H](O)[C@@H](O)[C@H](O[C@H]4[C@H](O)[C@@H](O)C(O)O[C@@H]4CO)O[C@@H]3CO)[C@@H]2O)O[C@H](CO)[C@H](O)[C@@H]1O (some centres unmarked) [Gb4 glycan]

Molecule: O=c1ccn([C@@H]2O[C@H](COP(=O)(O)OP(=O)(O)O[C@H]3O[C@H](CO)[C@H](O)[C@H](O)[C@H]3F)[C@@H](O)[C@H]2O)c(=O)[nH]1 [UDP-2FGal, UDP-2-deoxy-2-fluoro-α-D-galactopyranose]
X-ray crystallography (cocrystallisation) [3]: employed an inert analog of the sugar nucleotide donor, UDP-2-deoxy-2-fluoro-α-D-galactopyranose (UDP-2FGal) for cocrystallization with β3GalT5

B1: human β3GalT5 (β1,3-galactosyltransferase 5) (Homo sapiens) (protein)
chain: FKEQSFVYKKDGNFLKLPDTDCRQTPPFLVLLVTSSHKQLAERMAIRQTWGKERMVKGKQLKTFFLLGTTSSAAETKEVDQESQRHGDIIQKDFLDVYYNLTLKTMMGIEWVHRFCPQAAFVMKTDSDMFINVDYLTELLLKKNRTTRFFTGFLKLNEFPIRQPFSKWFVSKSEYPWDRYPPFCSGTGYVFSGDVASQVYNVSKSVPYIKLEDVFVGLCLERLNIRLEELHSQPTFFPGGLRFSVCLFRRIVACHFIKPRTLLDYWQALENSRGEDCP
notes: recombinant luminal catalytic domain Phe31-Pro308 (crystallised construct), transmembrane domain removed; N-glycosylated
Km [4]: 750 µM
Km [5]: 500 µM
